Here are results for eight molecules from patent US12595231B2 (priority 2022, dated 2026).

Data set [1] in a line: primary salt formation assessment: storage at 40° C./75% RH for ca. 24 h, XRPD. Type of data set: physicochemical. To be noted: solids stored at 40° C./75% RH for ca. 24 h. The protocol:
Solids were dried at 40° C. under vacuum for ca. 24 h, and then re-analysed by XRPD.
Solids were then stored at 40° C./75% RH for ca. 24 h, and then re-analysed by XRPD.

The format of data set [2] is physicochemical. How it is done:
Approximately 20 mg of each salt was weighed into 3×2 mL push cap vials. 0.1 mL of buffer (Chloride pH 1.2; Acetate pH 4.5; Phosphate pH 6.8) was added to each vial, at 25° C. The experiment was stirred for ca. 24 h. After 2 h, the pH was measured and adjusted if required. After 24 h a final pH measurement was taken. Any slurries were centrifuged and the solids analysed by XRPD.

A short description of data set [3]: primary salt formation assessment: solution degradation (HPLC of mother liquor). The class given is physicochemical. To be noted: salt formation experiment. The protocol:
HPLC analysis was carried out to determine the chemical purity of the mesembrine and to provide information on any impurities. The following conditions were use: • Column: Waters Acquity BEH 018 1.7 μm 150 mm×2.1 mm • Column Temperature: 33° C. • Autosampler Temperature: 25° C. • UV Wavelength: 280 nm • Injection Volume: 5 μL • Flow Rate: 0.29 mL/min • Mobile Phase A: 0.1% NH4 in H2O • Mobile Phase B: Methanol:Water 20:80% v/v • Gradient Program: […]
The experiments were then temperature cycled between the upper temperature limit (specified in Table 3.1) and 5° C. at 0.1° C./min, with 1 h holds at the upper temperature limit, and 5° C. for ca. 72 h.
After temperature cycling, solids were isolated from experiments at 5° C., and analysed by XRPD.

Data set [4] is described as follows: DVS analysis (water uptake). Type of data set: physicochemical. The following applies: 80% RH, 25° C.; listed as fumarate salt Pattern 4.
A short description of a further data set: 1-week stability study. To be noted: for Observation: Sigma Aldrich colour chart. Type of data set: physicochemical. How it is done:
A 1-week stability study was performed for hydrochloride salt Pattern 1, besylate salt Pattern 1, fumarate salt Pattern 1+4, and fumarate salt Pattern 4.
Approximately 5 mg of the salt was weighed into 3×2 mL push cap vials. The 2 mL vials were then each placed inside a 20 mL vial, with the lids on or off as required. The solids were placed under the required stability conditions for 1 week at the following three conditions: 40° C./75% RH (open); 80° C. (closed); Ambient light, temperature and humidity (open)
After 1-week, visual observations were noted, then the solids were analysed by XRPD and HPLC.

Data set [5] can be described thus: solubility screen of amorphous besylate salt. Type of data set: physicochemical. The protocol: The amorphous besylate salt prepared in Example 8 was used in a solubility screen as follows:
Known volume aliquots of solvent system were added to each vial, with heating at 40° C. between each addition for ca. 5 minutes. Addition of solvents was continued until either dissolution was observed, or until 100 volumes (ca. 1 mL) had been added.
After the solvent addition was complete, the experiments were stirred at 40° C. for ca. 16 h. […] The solids were isolated by centrifuge filtration and were analysed by XRPD.
Any solids isolated were analysed by XRPD.

A short description of data set [6]: blood:plasma and blood:brain ratios in satellite animals. Type of data set: in vivo, male C57Bl/6J mice. The following applies: satellite mice, 10 mg/kg i.p., t=0.25 h. The protocol: Groups of 18 male C57Bl/6J mice (weighing between 20 and 30 g) received a single administration of test compound (10 mg/kg; i.p.) in methylcellulose (0.5% w/v) at a nominal concentration of […].

For data set [7] the following is noted: male C57Bl/6J mice, 10 mg/kg i.p.
Data set [8] in a line: solvent miscibility/solubility of mesembrine (Example 2). Type of data set: physicochemical. The protocol:
After dissolution 278 μL of the solution was aliquoted into pre-tared vials, and the solvent allowed to evaporate at ambient conditions for 1 h. The vials were then dried at 20° C. under vacuum for ca. 22 h. After drying, the vials were back-weighed to determine the mass of mesembrine in each vial.
The miscibility study was carried out by adding aliquots of the desired solvent system to each vial. The following aliquot sizes were used: Aliquot numbers 1-10-20 μL; 11-16-50 μL; 17-19-200 μL; 20-750 μL.
In between additions the experiment was heated to 40° C. for ca. 5 minutes to facilitate miscibility/solubility. Additions were continued until miscibility was observed, or ca. 100 volumes (2 mL) had been added.

The conditions of data set [9]: cited from earlier work.
Where [10] appears, read: Ambient light, temperature and humidity, 1 week.

Values after ≈ are worked out from the molar mass of the structure shown. Read-outs that look alike come from different tables or passages of the source.

For the molecule `COc1ccc(C23CCC(=O)CC2N(C)CC3)cc1OC.O=C(O)/C=C/C(=O)O` (stereo not shown) [Fumarate Pattern 1, mesembrine fumarate], the “physical stability at 40° C./75% RH (Comments)” value in data set [1] was “Physically stable”. In addition, in data set [2] (Target pH 1.2 (chloride buffer), 25° C., 24 h, with respect to mesembrine), the “HPLC Conc.” value worked out at 29.44 mg/mL. Besides, in data set [2] (Target pH 6.8, ca. 20 mg in 0.1 mL buffer), the Observation entry was “Oiling”.
With `COc1ccc(C23CCC(=O)CC2N(C)CC3)cc1OC.O=C(O)/C=C/C(=O)O` (stereo not shown) [Fumarate Pattern 2, mesembrine fumarate], the “solution degradation (Comments)” value in data set [3] is “degradation”.
With `COc1ccc(C23CCC(=O)CC2N(C)CC3)cc1OC.O=C(O)C=CC(=O)O` (stereo not shown) [Fumarate Pattern 4, mesembrine fumarate], the DVS water uptake in data set [4] worked out at 0.5 wt %. Also, the HPLC is reported as 96.4 % area in the data set “1-week stability study” (40° C./75% RH (open), 1 week); 96.4 % area in the data set “1-week stability study” (80° C. (closed), 1 week); 96.4 % area in “1-week stability study” (setting [10]); 95.9 % area in the data set “1-week stability study” (Input). In addition, the “XRPD (pattern number)” value in “1-week stability study” (40° C./75% RH (open), 1 week) is given as 4,; in “1-week stability study” (80° C. (closed), 1 week), 4,; in “1-week stability study” (setting [10]), 4,; in “1-week stability study” (Input), 4,. Further, the Observation entry in the data set “1-week stability study” (40° C./75% RH (open), 1 week) is reported as “Faint beige solids (BE10)”; in the data set “1-week stability study” (80° C. (closed), 1 week) it was “Faint beige solids (BE10)”; in “1-week stability study” (setting [10]), “Faint beige solids (BE10)”.
For the molecule `COc1ccc(C23CCC(=O)CC2N(C)CC3)cc1OC.O=P(O)(O)O` (stereo not shown) [Phosphate Pattern 1, mesembrine phosphate], the “solution degradation (Comments)” value in [3] is “degradation”.
Still for that read-out and setting: in the case of `COc1ccc(C23CCC(=O)CC2N(C)CC3)cc1OC.O=C(O)CCC(=O)O` (stereo not shown) [Succinate Pattern 1, mesembrine succinate] it was “degradation”.
Turning to `COc1ccc(C23CCC(=O)CC2N(C)CC3)cc1OC.O=C(O)C(O)C(O)C(=O)O` (stereo not shown) [Tartrate Pattern 1, mesembrine tartrate], the “physical stability at 40° C./75% RH (Comments)” value in [1] is reported as “Deliquescence”. In addition, the “solution degradation (Comments)” value in [3] was “degradation”.
As usually defined, the Solubility is how much of the substance goes into solution per volume. Usually Cmax stands for the peak of the concentration-time curve. As a reminder, the Tmax is the time from dosing to the highest level. Broadly, the half-life is how long it takes for the measured level to halve. A low value points to fast loss. Regarding `COc1ccc(C23CCC(=O)CC2N(C)CC3)cc1OC.O=S(=O)(O)c1ccccc1` (stereo not shown) [amorphous besylate salt, mesembrine besylate], the Solubility in data set [5] (1,4-Dioxane) was below 10000 µg/mL; in [5] (1-Butanol), below 10000 µg/mL; in data set [5] (1-Propanol) it was “ca.31 mg/mL”; in [5] (2-Ethoxyethanol) it was “ca.44 mg/mL”; in [5] (2-Methyl THF) it was below 10000 µg/mL; in data set [5] (2-Propanol), below 10000 µg/mL. Further, the Solubility is above 500000 µg/mL in data set [5] (2-Propanol:Water (50:50)); “ca.167 mg/mL” in data set [5] (2-Propanol:Water (75:25)); below 10000 µg/mL in [5] (Acetone); above 500000 µg/mL in data set [5] (Acetone:Water (90:10)); above 500000 µg/mL in data set [5] (Acetonitrile); below 10000 µg/mL in data set [5] (Anisole). In addition, the Solubility is below 10000 µg/mL in data set [5] (Butyl Acetate); “ca.250 mg/mL” in data set [5] (Dichloromethane (DCM)); below 10000 µg/mL in [5] (Diisopropyl ether); above 500000 µg/mL in data set [5] (Dimethylsulfoxide (DMSO)); “ca.44 mg/mL” in data set [5] (Ethanol); above 500000 µg/mL in data set [5] (Ethanol:Water (50:50)). Further, the Solubility in [5] (Ethanol:Water (90:10)) is above 500000 µg/mL; in data set [5] (Ethyl acetate), below 10000 µg/mL; in data set [5] (Heptane), below 10000 µg/mL; in data set [5] (Isopropyl acetate), below 10000 µg/mL; in data set [5] (Methanol) it was above 500000 µg/mL; in [5] (Methylethyl Ketone (MEK)) it was below 10000 µg/mL. The Solubility in data set [5] (Methylisobutyl Ketone (MiBK)) was below 10000 µg/mL; in [5] (N,N-Dimethylacetamide (DMA)), above 500000 µg/mL; in data set [5] (N,N-Dimethylformamide (DMF)), “ca.250 mg/mL”; in [5] (N-Methylpyrrolidone (NMP)), above 500000 µg/mL; in data set [5] (Tetrahydrofuran (THF)) it was below 10000 µg/mL; in data set [5] (Toluene), below 10000 µg/mL. The Solubility in [5] (Water) is above 500000 µg/mL; in [5] (tert-Butylmethyl Ether (tBME)), below 10000 µg/mL. The Brain concentration in data set [6] was found to be 814 ng/g. For the same molecule, the Plasma concentration in data set [6] was determined as 417 ng/mL. In data set [7], the “AUC greater than that produced by the mesembrine free base” value is recorded as “over 100 ng·hr/mL”. Moreover, the “difference in half-life versus the free base” value in data set [7] was around 10 min. The molecule also had an AUC0-inf in [7] (plasma) of 392 ng·h/mL. The molecule also yielded a maximum concentration (Cmax) in [7] (plasma) of 451 ng/mL. The Tmax in [7] (plasma) is 15 min. The half-life in data set [7] (plasma) worked out at 36.9 min.
For the molecule `COc1ccc(C23CCC(=O)CC2N(C)CC3)cc1OC` (stereo not shown) [mesembrine, 3a-(3,4-dimethoxyphenyl)-octahydro-1-methy-6H-indol-6-one], the Miscibility was above 850 mg/mL in data set [8] (1,4-Dioxane); above 845 mg/mL in data set [8] (2-Methyl THF); above 870 mg/mL in data set [8] (2-Propanol (IPA)); above 870 mg/mL in [8] (2-Propanol:Water (50:50)); above 890 mg/mL in [8] (Acetone); above 855 mg/mL in data set [8] (Acetonitrile). In addition, the Miscibility in data set [8] (DMSO) is above 288 mg/mL; in data set [8] (Ethanol), above 630 mg/mL; in data set [8] (Ethyl acetate), above 445 mg/mL; in [8] (Heptane), below 9 mg/mL; in data set [8] (Isopropyl acetate), above 900 mg/mL; in [8] (Methanol) it was above 455 mg/mL. Further, the Miscibility in data set [8] (Methylethyl Ketone (MEK)) is listed as above 915 mg/mL; in data set [8] (N-Methyl-2-pyrrolidone (NMP)), above 450 mg/mL; in data set [8] (Tert-butyl methyl ether), above 465 mg/mL; in [8] (Tetrahydrofuran (THF)), above 381 mg/mL; in [8] (Toluene), above 455 mg/mL; in [8] (Water), below 9 mg/mL. Moreover, the Solubility in data set [9] (Ethanol) was 10000 µg/mL (≈ 34.6 mM); in [9] (Water), “low solubility”; in data set [9] (chloroform) it was 10000 µg/mL (≈ 34.6 mM). In addition, the Brain concentration in [6] was found to be 1292 ng/g. The Plasma concentration in data set [6] turned out to be 317 ng/mL. This molecule also registered an AUC0-inf in data set [7] (plasma) of 290 ng·h/mL. The same molecule yielded a Cmax in [7] (plasma) of 400 ng/mL. Further, the Tmax in data set [7] (plasma) is 15 min. In data set [7] (plasma), this molecule registered a half-life of 27.2 min. For the same molecule, in [7] (plasma), the t1/2 was found to be 27.2 min.
